Measured values as given in patent US12077503B2, “Substituted cyclic amides and their use as herbicides” (FMC CORPORATION, priority 2015, dated 2024).

Key:
Type in all cases: in vivo
[1] = test system: sedge, umbrella (small-flower umbrella sedge, Cyperus difformis); experiment: Test B flooded paddy test; conditions: Cyperus difformis, 250 g ai/ha, Flood; 0 to 100 scale where 0 is no effect and 100 is complete control; read-out: Sedge, Umbrella plant response rating
Procedure, shortened: (§1)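 2-leaf plants; pots flooded 3 cm over soil; cpd added to paddy water; depth held; greenhouse 13–15 d; visual rating vs controls, 0 = no effect, 100 = complete control.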

[2] = test system: rice (Oryra sativa); experiment: Test B flooded paddy test; conditions: Oryza sativa, 250 g ai/ha, Flood; 0 to 100 scale where 0 is no effect and 100 is complete control; read-out: Rice plant response rating
Procedure, shortened: as §1

[3] = test system: barnyardgrass (Echinochloa crus-galli); experiment: Test B flooded paddy test; conditions: Echinochloa crus-galli, 250 g ai/ha, Flood; 0 to 100 scale where 0 is no effect and 100 is complete control; read-out: Barnyardgrass plant response rating
Procedure, shortened: as §1

[4] = test system: ducksalad (Heteranthera limosa); experiment: Test B flooded paddy test; conditions: Heteranthera limosa, 250 g ai/ha, Flood; 0 to 100 scale where 0 is no effect and 100 is complete control; read-out: Ducksalad plant response rating
Procedure, shortened: as §1

[5] = test system: ryegrass, Italian (Italian ryegrass, Lolium multiflorum); experiment: Test A postemergence; conditions: Lolium multiflorum, post-emergence, 240 h, Postemergence
Procedure, shortened: (§2)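 Seeds sprayed preemergence with a directed soil spray, or plants at 2 to 10 cm height and one- to two-leaf stage sprayed postemergence, with test chemicals in a non-phytotoxic solvent mixture containing surfactant, in loam soil–sand blend. Injury rated visually against untreated controls after about 10 d in greenhouse, 0 (no effect) to 100 (complete control).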

[6] = test system: blackgrass (Alopecurus myosuroides); experiment: Test A postemergence; conditions: Alopecurus myosuroides, post-emergence, 240 h, Postemergence
Procedure, shortened: as §2

[7] = test system: Kochia (Kochia scoparia); experiment: Test A postemergence; conditions: Bassia scoparia, post-emergence, 240 h, Postemergence
Procedure, shortened: as §2

[8] = test system: barnyardgrass (Echinochloa crus-galli); experiment: Test A postemergence; conditions: Echinochloa crus-galli, post-emergence, 240 h, Postemergence
Procedure, shortened: as §2

[9] = test system: giant foxtail (Setaria faberii); experiment: Test A postemergence; conditions: Setaria faberi, post-emergence, 240 h, Postemergence
Procedure, shortened: as §2

[10] = test system: wheat (Triticum aestivum); experiment: Test A postemergence; conditions: Triticum aestivum, post-emergence, 240 h, Postemergence
Procedure, shortened: as §2

[11] = test system: pigweed (Amaranthus retroflexus); experiment: Test A postemergence; conditions: Amaranthus retroflexus, post-emergence, 240 h, Postemergence
Procedure, shortened: as §2

[12] = test system: Galium (catchweed bedstraw, Galium aparine); experiment: Test A postemergence; conditions: Galium, post-emergence, 240 h, Postemergence
Procedure, shortened: as §2

[13] = test system: ragweed (common ragweed, Ambrosia elatior); experiment: Test A postemergence; conditions: Ambrosia artemisiifolia, post-emergence, 240 h, Postemergence
Procedure, shortened: as §2

[14] = test system: corn (Zea mays); experiment: Test A postemergence; conditions: Zea mays, post-emergence, 240 h, Postemergence
Procedure, shortened: as §2

COc1cc([C@H]2CN(C)C(=O)[C@@H]2C(=O)Nc2cccc(F)c2F)ccc1F [Compound 1299]
pest or weed control at 250 g/ha [1]: 40%
pest or weed control at 250 g/ha [2]: 20%
pest or weed control at 250 g/ha [3]: 65%
pest or weed control at 250 g/ha [4]: 85%
pest or weed control at 125 g/ha ([5]; 125 g ai/ha, visual rating about 10 d after treatment, read-out: Ryegrass, Italian plant response rating (0 to 100 scale)): 20%
pest or weed control at 500 g/ha ([5]; 500 g ai/ha, visual injury, 0 to 100 scale (0 no effect, 100 complete control), approx. 10 d, read-out: Plant response rating, Ryegrass, Italian): 60%
pest or weed control at 125 g/ha ([6]; 125 g ai/ha, visual rating about 10 d after treatment, read-out: Blackgrass plant response rating (0 to 100 scale)): 20%
pest or weed control at 500 g/ha ([6]; 500 g ai/ha, visual injury, 0 to 100 scale (0 no effect, 100 complete control), approx. 10 d, read-out: Plant response rating, Blackgrass): 60%
pest or weed control at 125 g/ha ([7]; 125 g ai/ha, visual rating about 10 d after treatment, read-out: Kochia plant response rating (0 to 100 scale)): 0%
pest or weed control at 500 g/ha ([7]; 500 g ai/ha, visual injury, 0 to 100 scale (0 no effect, 100 complete control), approx. 10 d, read-out: Plant response rating, Kochia): 60%
pest or weed control at 125 g/ha ([8]; 125 g ai/ha, visual rating about 10 d after treatment, read-out: Barnyardgrass plant response rating (0 to 100 scale, 0 no effect, 100 complete control)): 90%
pest or weed control at 500 g/ha ([8]; 500 g ai/ha, visual injury, 0 to 100 scale (0 no effect, 100 complete control), approx. 10 d, read-out: Plant response rating, Barnyardgrass): 90%
pest or weed control at 125 g/ha ([9]; 125 g ai/ha, visual rating about 10 d after treatment, read-out: Foxtail, Giant plant response rating (0 to 100 scale)): 90%
pest or weed control at 500 g/ha ([9]; 500 g ai/ha, visual injury, 0 to 100 scale (0 no effect, 100 complete control), approx. 10 d, read-out: Plant response rating, Foxtail, Giant): 90%
plant injury at 125 g/ha ([10]; 125 g ai/ha, visual rating about 10 d after treatment, read-out: Wheat plant response rating (0 to 100 scale)): 30%
plant injury at 500 g/ha ([10]; 500 g ai/ha, visual injury, 0 to 100 scale (0 no effect, 100 complete control), approx. 10 d, read-out: Plant response rating, Wheat): 40%
pest or weed control at 125 g/ha ([11]; 125 g ai/ha, visual rating about 10 d after treatment, read-out: Pigweed plant response rating (0 to 100 scale)): 0%
pest or weed control at 500 g/ha ([11]; 500 g ai/ha, visual injury, 0 to 100 scale (0 no effect, 100 complete control), approx. 10 d, read-out: Plant response rating, Pigweed): 0%
pest or weed control at 125 g/ha ([12]; 125 g ai/ha, visual rating about 10 d after treatment, read-out: Galium plant response rating (0 to 100 scale)): 40%
pest or weed control at 500 g/ha ([12]; 500 g ai/ha, visual injury, 0 to 100 scale (0 no effect, 100 complete control), approx. 10 d, read-out: Plant response rating, Galium): 50%
pest or weed control at 125 g/ha ([13]; 125 g ai/ha, visual rating about 10 d after treatment, read-out: Ragweed plant response rating (0 to 100 scale)): 0%
pest or weed control at 500 g/ha ([13]; 500 g ai/ha, visual injury, 0 to 100 scale (0 no effect, 100 complete control), approx. 10 d, read-out: Plant response rating, Ragweed): 20%
plant injury at 125 g/ha ([14]; 125 g ai/ha, visual rating about 10 d after treatment, read-out: Corn plant response rating (0 to 100 scale)): 40%
Corn plant response rating (crop injury, 0 = no effect, 100 = complete kill) at 500 g/ha ([14]; 500 g ai/ha, visual injury, 0 to 100 scale (0 no effect, 100 complete control), approx. 10 d): 80%
